Measured values reported in patent publication US12534501B2, “Targeting deregulated Wnt signaling in cancer using stabilized alpha-helices of BCL-9” (Dana-Farber Cancer Institute, Inc., priority 2011, dated 2026).
Numbered stars: 1 amine (or outer) side, 2 acyl side, 3 side chain; on linkers, the order of the positions; unused ones are H or OH. Bridge positions count the residues as written; N and C are the ends. Square brackets hold non-standard residues; d marks the D form. Peptide text beside a SMILES is read from it. ξ: configuration not given here. ξαMeNle(6-ylidene) = CC(CCCC=[*:3])(N[*:1])C(=O)[*:2]; Nle = CCCC[C@H](N)C(=O)O

Tests used:
[1] = system: GFP-positive Colo320 cells in NOD/SCID mice; assay: Colo320 intraperitoneal xenograft model; type: in vivo
Procedure: To explore the therapeutic potential of targeting the BCL9/β-catenin interaction, the capacity of SAH-BCL9B to suppress tumor growth was examined in vivo. GFP-expressing Colo320 cells (1×10^6) were injected into the peritoneum of sublethally irradiated NOD/SCID mice. Two days after cellular injection, mouse cohorts (n=6) were treated with vehicle (2.5% DMSO in D5W), SAH-BCL9B, or SAH-BCL9B(R359E) peptides (20 mg/kg) for a total of 6 doses administered intraperitoneally every other day. On day 40 of the experiment, mice were sacrificed and evaluated for tumor burden and metastasis by whole body imaging and histologic examination of harvested GFP-positive tissues. […] Importantly, no histologic changes in normal murine tissues were observed across the treatment groups upon necropsy.
GFP-positive Colo320 cells were generated as previously reported (Mani, M. et al. Cancer Res 69, 7577-86 (2009)). Cells were pelleted, resuspended in sterile 1x PBS and injected intraperitoneally (1×10^6 cells/mouse) into 5-week-old sublethally irradiated NOD.CB17-PrkdcSCID/J mice (Jackson Laboratory) (n=6 per cohort). Two days after cellular inoculation, mice were treated by intraperitoneal injection with vehicle (2.5% DMSO in D5W) or SAH-BCL9 peptides (20 mg/kg) on alternate days for a total of 6 doses. Forty days after tumor cell injection, the mice were euthanized and GFP-positive tumor visualized using an ImageQuant LAS-4000 (GE Healthcare). Complete necropsies were performed for each experimental animal and livers were sectioned in their entirety at 5 mm intervals for quantitation of tumor metastases. Tissues were subjected to H&E staining and immunohistochemical analysis using anti-CD34 and anti-CD44 antibodies.

HUVEC = assay: In vitro angiogenesis assay (capillary tube formation); type: cell-based, human; conditions: HUVEC with supernatants of Colo320 or MM1S cells treated at 5 μM for 24 h; read at 5 h
Procedure: Angiogenesis was evaluated as previously described (Mani, M. et al. Cancer Res 69, 7577-86 (2009)) using an in vitro angiogenesis assay kit (Millipore). For capillary tube formation analysis, HUVEC were cultured on polymerized matrix gel and exposed to supernatant media collected from Colo320 or MM1S cells treated with vehicle (0.5% DMSO), SAH-BCL9B peptides (5 μM) for 24 h. The number of capillary tubes formed after 5 h treatment at 37° C. was determined by counting 5 randomly selected fields at 40× magnification, according to manufacture's instructions. HUVEC cultured in VEGF media and VEGF-free media were used as positive and negative controls, respectively. Cellular invasion assays were performed using Matrigel Boyden chambers (BD Biosciences) as described (Mani, M. et al. Cancer Res 69, 7577-86 (2009)). The reported data represent the average of three independent experiments performed in triplicate. See results in FIG. 3H-FIG. 3I.

[2] = system: INA-6 multiple myeloma cells; assay: Cell proliferation, thymidine incorporation; type: cell-based; conditions: 5 μM, 24 h, vs vehicle and SAH-BCL9B(R359E)
Procedure: (§1) Cell proliferation assays were performed as described (Sukhdeo, K. et al. Proc Natl Acad Sci USA 104, 7516-21 (2007)). Cell viability was measured using the CellTiter-Glo assay (Promega) according to the manufacturer's instructions. Apoptosis was evaluated by activated caspase-3 and PARP western blotting. See results in FIG. 3A-FIG. 3F, FIG. 13, and FIG. 20.

[3] = system: Wnt target genes in Colo320 cells; assay: qPCR of Wnt/β-catenin target genes; type: cell-based
Procedure: RNA was extracted with TRIzol Reagent (Invitrogen) according to the manufacturer's protocol. Total RNA (2 μg) was reverse transcribed (SuperScript VILO cDNA synthesis kit, Invitrogen) and qPCR was performed using an Applied Biosynthesis 7500 Real-time PCR system. Analysis of target genes was conducted in quadruplicate using POWER SYBR Green Master Mix (Applied Biosystems) with previously described primer sets. Transcripts levels were normalized to β-actin expression. These experiments were repeated three times. See results in FIG. 2B, FIG. 2C.
To measure the effects of vehicle, SAH-BCL9B, and SAH-BCL9MUT on the expression of Wnt/β-catenin target genes, including VEGF, in Colo320 (FIG. 18) and MM1S (FIG. 19) cell lines, quantitative PCR (qRT-PCR) analysis was performed. RNA was extracted with TRIzol Reagent (Invitrogen) according to the manufacturer's protocol. Total RNA (2 μg) was reverse transcribed (SuperScript VILO cDNA synthesis kit, Invitrogen) and qPCR was performed using an Applied Biosynthesis 7500 Real-time PCR system. PCR primers were designed as below: […]
Analysis of target genes was conducted in quadruplicate using POWER SYBR Green Master Mix (Applied Biosystems) as previously described (M. Mani et al., Cancer Res 69, 7577 (2009)). Transcripts levels were normalized to β-actin expression. These experiments were repeated three times.

Colo320 cells [4] = assay: Cell viability, CellTiter-Glo; type: cell-based; conditions: 72 h, 5 μM
Procedure: as §1

MM1S cells = assay: Cell viability, CellTiter-Glo; type: cell-based; conditions: 72 h, 5 μM
Procedure: as §1

Colo320 cells [5] = assay: Cellular uptake of FITC-labelled peptides; type: cell-based; conditions: FITC derivatives
Procedure: For fluorescence microscopy evaluation, cells were prepared using a cytocentrifuge (Thermo Shandon) and fixed as previously described (Sukhdeo, K. et al. Proc Natl Acad Sci USA 104, 7516-21 (2007); Mani, M. et al. Cancer Res 69, 7577-86 (2009)). Anti-β-catenin and rhodamine-conjugated secondary antibodies (5 μg/ml; Southern Biotechnology) were employed. Images were obtained using a BioRad Radiance 2000 laser scanning confocal microscope. Cell permeability of SAH-BCL9B and SAH-BCL9B(R359E) were determined by fluorescence microscopy of cells treated with FITC-derivatives of the above described stapled peptides and also by blotting/fluorescence scan, performed as previously described (Pitter, K. et al Methods Enzymol, 446, (2008), 387-408; Walensky, L. D. et al. Science 305, 1466-70 (2004). See results in FIG. 1E, FIG. 7.

[6] = 20 mg/kg i.p. every other day, 6 doses, day 40

Row | Compound | metastatic tumor nodules in the liver [1, 6] | tumor burden (overall tissue fluorescence, whole body imaging) [1, 6] | capillary CD34 immunoreactivity ([1]; 20 mg/kg i.p., 6 doses) | number of intratumoral blood vessels ([1]; 20 mg/kg i.p., 6 doses) | tumor cell CD44 immunoreactivity ([1]; 20 mg/kg i.p., 6 doses) | TUNEL positivity in colonic tumor tissue ([1]; NOD/SCID mice bearing intraperitoneal Colo320 cells) | capillary tube formation (HUVEC) | growth by thymidine incorporation [2] | mRNA levels of VEGF, c-Myc, and Axin2 ([3]; qPCR) | Actin expression (non-Wnt pathway target gene) ([3]; qRT-PCR, Colo320) | mRNA levels of VEGF, c-MYC, LGR5, LEF1, and AXIN2 ([3]; qRT-PCR, Colo320 (FIG. 18A), normalized to β-actin) | viability (Colo320 cells [4]) | viability (MM1S cells) | cellular uptake (Colo320 cells [5])
1 | CCCC[C@H](NC(=O)[C@H](CCCNC(=N)N)NC(=O)[C@H](CCC(N)=O)NC(=O)[C@@H](NC(=O)C1(C)CCCC=CCCCC(C)(NC(=O)[C@H](CC(C)C)NC(=O)[C@H](CO)NC(=O)[C@H](CCCNC(=N)N)NC(=O)[C@H](CCC(=O)O)NC(=O)[C@H](CCCNC(=N)N)NC(=O)[C@H](Cc2c[nH]cn2)NC(=O)[C@H](CCC(=O)O)NC(=O)[C@H](CC(C)C)NC(=O)[C@H](CCC(N)=O)NC(=O)[C@H](CCC(=O)O)NC(=O)[C@H](CCC(N)=O)NC(=O)[C@H](CO)NC(=O)[C@H](CC(C)C)NC(C)=O)C(=O)N[C@@H]([C@@H](C)O)C(=O)N[C@@H](CC(C)C)C(=O)N[C@@H](CCCNC(=N)N)C(=O)N1)[C@@H](C)CC)C(=O)N[C@@H](CC(C)C)C(=O)N[C@@H](Cc1ccccc1)C(N)=O (some centres unmarked) [SAH-BCL9B] (Ac-LSQEQLEHRERSL[ξαMeNle(6-ylidene)]TLR[ξαMeNle(6-ylidene)]IQR[Nle]LF-NH2; staple 14-18) | overall reduction of metastatic tumor nodules | markedly reduced | less intense capillary CD34 immunoreactivity | reduction in the number of intratumoral blood vessels | decreased tumor cell CD44 immunoreactivity | notably increased TUNEL positivity | reduced capillary tube formation | significantly reduced growth | significantly reduced | no change | dose-responsively reduced | no effect | no effect | –
2 | SAH-BCL9B(R359E): SEQ ID NO: 7: LSQEQLEHEERSLXTLRXIQRBLF; reverse polarity point mutant, negative control of SAH-BCL9B | – | – | – | – | – | – | – | – | – | – | – | – | – | similar
